Results from the NIST ThermoML archive (doi:10.1016/j.jct.2011.08.009).
Where “and” joins values, the source holds several entries; their conditions need not be identical. Equal entries are not always repeated. Numbers after ± are expanded uncertainties.

Conditions: Liquid, Closed cell (Static) method

CCC(C)N (stereo unspecified) [2-butanamine]
Conditions	vapor or sublimation pressure
274.06 K	6.81 ± 0.027 kPa
274.09 K	6.804 ± 0.027 kPa
283.91 K	11.46 ± 0.038 kPa
293.15 K	18.43 ± 0.084 kPa
293.88 K	19.21 ± 0.056 kPa
303.15 K	29.11 ± 0.12 kPa
303.84 K	30.04 ± 0.081 kPa and 30.03 ± 0.081 kPa
313.15 K	44.25 ± 0.18 kPa
313.81 K	45.47 ± 0.12 kPa and 45.38 ± 0.12 kPa
323.15 K	65.05 ± 0.26 kPa
323.92 K	66.77 ± 0.16 kPa
333.15 K	92.82 ± 0.36 kPa
333.91 K	95.07 ± 0.22 kPa and 95.08 ± 0.22 kPa and 95.1 ± 0.22 kPa
343.15 K	128.99 ± 0.5 kPa
343.86 K	132.08 ± 0.3 kPa and 132.05 ± 0.3 kPa
353.15 K	175.09 ± 0.67 kPa
353.9 K	179.16 ± 0.39 kPa and 178.99 ± 0.39 kPa
363.15 K	232.69 ± 0.88 kPa

NC1CCCCC1 [cyclohexylamine]
Conditions	vapor or sublimation pressure
273.15 K	0.2306 ± 0.011 kPa
274.3 K	0.2512 ± 0.0031 kPa
283.15 K	0.4646 ± 0.013 kPa
283.86 K	0.4861 ± 0.005 kPa
293.15 K	0.8833 ± 0.018 kPa
293.83 K	0.9213 ± 0.0085 kPa
293.86 K	0.9213 ± 0.0085 kPa
293.88 K	0.9229 ± 0.0085 kPa and 0.9217 ± 0.0085 kPa
303.15 K	1.596 ± 0.021 kPa
303.79 K	1.661 ± 0.011 kPa
303.82 K	1.66 ± 0.011 kPa
303.84 K	1.661 ± 0.011 kPa
313.15 K	2.756 ± 0.024 kPa
313.79 K	2.852 ± 0.014 kPa
313.81 K	2.854 ± 0.014 kPa
323.15 K	4.573 ± 0.03 kPa
323.92 K	4.755 ± 0.018 kPa
323.97 K	4.757 ± 0.018 kPa
323.99 K	4.757 ± 0.018 kPa and 4.758 ± 0.018 kPa
333.15 K	7.32 ± 0.039 kPa
334 K	7.563 ± 0.025 kPa
343.15 K	11.35 ± 0.052 kPa
344 K	12.08 ± 0.035 kPa
353.15 K	17.98 ± 0.073 kPa
354.06 K	17.65 ± 0.048 kPa
363.15 K	25.06 ± 0.095 kPa
364.1 K	25.96 ± 0.064 kPa
364.13 K	25.94 ± 0.064 kPa and 25.96 ± 0.064 kPa

O [water]
Conditions	vapor or sublimation pressure [kPa]
273.15 K	0.5817 ± 0.014
283.15 K	1.186 ± 0.021
293.15 K	2.281 ± 0.023
303.15 K	4.172 ± 0.029
313.15 K	7.294 ± 0.039
323.15 K	12.25 ± 0.055
333.15 K	19.84 ± 0.08
343.15 K	31.11 ± 0.12
353.15 K	47.37 ± 0.17
363.15 K	70.25 ± 0.24
